{"source": "patent US20190105367A1", "about": "“ANTIMICROBIAL 4-OXOQUINOLIZINES” (Emergent Product Development Gaithersburg Inc., priority 2011, published 2019)", "key": {"S. pneumoniae 49619": {"system": "S. pneumoniae 49619", "assay": "MIC, panel of quinolone-resistant strains (Example 2)", "assay_type": "cell-based, Streptococcus pneumoniae"}, "E. coli IMP": {"system": "E. coli IMP", "assay": "microbe, parasite or virus in culture", "conditions": "Escherichia coli, read-out: MIC E. coli IMP"}, "E. coli 25922": {"system": "E. coli 25922", "assay": "MIC, standard panel of Gram-positive and Gram-negative strains (Example 2)", "assay_type": "cell-based", "conditions": "Escherichia coli"}, "P. aeruginosa 27853": {"system": "P. aeruginosa 27853", "assay": "MIC, standard panel of Gram-positive and Gram-negative strains (Example 2)", "assay_type": "cell-based", "conditions": "Pseudomonas aeruginosa"}, "S. aureus ATCC 25923": {"system": "S. aureus ATCC 25923", "assay": "MIC, selected panel of bacterial strains (Example 5)", "assay_type": "cell-based, Staphylococcus aureus", "conditions": "Staphylococcus aureus, ATCC25923; read-out: MICs against Gram positive bacteria S. aureus ATCC 25923"}, "S. pneumoniae 1027": {"system": "S. pneumoniae 1027", "assay": "MIC, panel of quinolone-resistant strains (Example 2)", "assay_type": "cell-based", "conditions": "Streptococcus pneumoniae, LEV R"}, "[1]": {"system": "GN10 Pseudomonas aeruginosa", "assay": "Pre-chequerboard MIC for synergy study (Example 6)", "assay_type": "cell-based", "conditions": "ATCC 27853, antibiotic susceptible", "text": "(§1) A chequerboard technique was used to identify possible synergistic or antagonistic interactions between the 4-oxoquinolizines compounds, levofloxacin and polymyxin B. Levofloxacin was included as a control. […] Final dilutions were made in Mueller-Hinton broth, the specific test medium used for MIC determinations according to CLSI guidelines (CLSI. Methods for Dilution Antimicrobial Susceptibility Tests for Bacteria That Grow Aerobically; Approved Standard-Eighth Edition (2009). CLSI Document M07-A8. CLSI, Wayne, Pa. 19087-1898, USA.). The test medium used was a cation-adjusted Mueller-Hinton Broth II (Becton Dickinson UK Ltd., Oxford Science Park, Oxford, UK, OX4 4DQ).\n(§2) The compounds 2, 33 and 35, as well as levofloxacin were tested in combination with polymyxin B on the following isolates: GN31 Acinetobacter baumannii—antibiotic susceptible clinical isolate, GN52 Acinetobacter baumannii—levofloxacin resistant clinical isolate, GN56 Acinetobacter baumannii—levofloxacin resistant clinical isolate, GN48 Klebsiella pneumoniae—NCTC 13443—NDM-1-metallo-β-lactamase and GN10 Pseudomonas aeruginosa—ATCC 27853—antibiotic susceptible reference isolate. All isolates are from the collection maintained at Quotient Bioresearch Ltd., Cambridge, UK.\n(§3) The MIC values for the compounds and polymyxin B and levofloxacin were determined by broth microdilution following CLSI guidelines, and the MICs of agents in combination were determined as described by Pillai et. al (Pillai S K, Moellering R C Jr, Eliopoulis G M; Antimicrobial Combinations in Antibiotics in Laboratory Medicine 5th Edition (V. Lorian Ed) (2005) p 365-440). Initial MIC results were used to determine the microtiter plate patterns for the chequerboards. A suitable doubling dilution concentration range was selected such that the combination antibiotic range was at least two concentrations above and four concentrations below the MIC for each isolate. A fixed range of 0.008 to 8 mg/L was tested for polymyxin B except in the case of A. baumannii GN31 where a range of 0.004 to 4 mg/L was tested when in combination with the compounds 2, 33 and 35 as well as levofloxacin."}, "[2]": {"system": "GN31 Acinetobacter baumannii", "assay": "Pre-chequerboard MIC for synergy study (Example 6)", "assay_type": "cell-based", "conditions": "antibiotic susceptible clinical isolate", "text": "as §1, §2, §3"}, "[3]": {"system": "GN48 Klebsiella pneumoniae", "assay": "Pre-chequerboard MIC for synergy study (Example 6)", "assay_type": "cell-based", "conditions": "NCTC 13443, NDM-1", "text": "as §1, §2, §3"}, "[4]": {"system": "GN52 Acinetobacter baumannii", "assay": "Pre-chequerboard MIC for synergy study (Example 6)", "assay_type": "cell-based", "conditions": "levofloxacin resistant clinical isolate", "text": "as §1, §2, §3"}, "[5]": {"system": "GN56 Acinetobacter baumannii", "assay": "Pre-chequerboard MIC for synergy study (Example 6)", "assay_type": "cell-based", "conditions": "levofloxacin resistant clinical isolate", "text": "as §1, §2, §3"}, "A. baumannii ATCC 19606": {"system": "A. baumannii ATCC 19606", "assay": "MIC determination for Acinetobacter strains (Example 3)", "assay_type": "cell-based, Acinetobacter baumannii", "conditions": "reference strain"}, "A. baumannii J2": {"system": "A. baumannii J2", "assay": "MIC determination for Acinetobacter strains (Example 3)", "assay_type": "cell-based, Acinetobacter baumannii", "conditions": "LEV R, CIP R"}, "[6]": {"system": "Acinetobacter spp. H064200250", "assay": "MIC determination for Acinetobacter strains (Example 3)", "assay_type": "cell-based, Acinetobacter sp.", "conditions": "LEV R, CIP R, MRP R, IMP I"}, "A. baumannii A329": {"system": "A. baumannii A329", "assay": "MIC determination for Acinetobacter strains (Example 3)", "assay_type": "cell-based, Acinetobacter baumannii", "conditions": "LEV R, CIP R, MRP R, IMP R, AMK R, TET R"}, "A. baumannii A489": {"system": "A. baumannii A489", "assay": "MIC determination for Acinetobacter strains (Example 3)", "assay_type": "cell-based, Acinetobacter baumannii", "conditions": "LEV R, CIP R, MRP R, IMP R, AMK R, TET R"}, "A. baumannii A387": {"system": "A. baumannii A387", "assay": "MIC determination for Acinetobacter strains (Example 3)", "assay_type": "cell-based, Acinetobacter baumannii", "conditions": "LEV I, CIP R, IPM R, AMK R, TET R"}, "A. baumannii A390": {"system": "A. baumannii A390", "assay": "MIC determination for Acinetobacter strains (Example 3)", "assay_type": "cell-based, Acinetobacter baumannii", "conditions": "LEV R, CIP R, MRP R, IPM I, AMK R, TET I"}, "A. baumannii A401": {"system": "A. baumannii A401", "assay": "MIC determination for Acinetobacter strains (Example 3)", "assay_type": "cell-based, Acinetobacter baumannii", "conditions": "LEV R, CIP R, AMK R, TET R"}, "A. baumannii A472": {"system": "A. baumannii A472", "assay": "MIC determination for Acinetobacter strains (Example 3)", "assay_type": "cell-based, Acinetobacter baumannii", "conditions": "LEV R, CIP R, MRP I, IMP I, AMK R, TET R"}, "A. baumannii A473": {"system": "A. baumannii A473", "assay": "MIC determination for Acinetobacter strains (Example 3)", "assay_type": "cell-based, Acinetobacter baumannii", "conditions": "LEV R, CIP R, MRP R, IMP R, AMK R, TET R"}, "[7]": {"conditions": "Streptococcus pneumoniae, 49619, LEV S, read-out: MIC S. pneumoniae 49619"}, "[8]": {"conditions": "Streptococcus pneumoniae, 49619, read-out: MIC S. pneumoniae 49619"}}, "note": "Like-named read-outs stand apart in the source and are kept apart here."}
{"compound": "Cc1c(-c2cc(Cl)c(N)c(Cl)c2)ccn2c(=O)c(C(=O)O)cc(C3CC3)c12", "note": "[Compound 3, 8-(3,5-dichloro-4-amino-phenyl)-1-cyclopropyl-9-methyl-4-oxo-quinolizine-3-carboxylic acid]", "values": [{"measurement": "MIC", "setting": "S. pneumoniae 49619; [7]", "value": 0.5, "unit": "µg/mL"}, {"measurement": "MIC", "setting": "E. coli IMP", "value": 0.06, "unit": "µg/mL"}]}
{"compound": "Cc1c(-c2ccc(N)cc2)c(F)cn2c(=O)c(C(=O)O)cc(C3CC3)c12", "note": "[Compound 7, 8-(4-amino-phenyl)-1-cyclopropyl-7-fluoro-9-methyl-4-oxo-quinolizine-3-carboxylic acid]", "values": [{"measurement": "MIC", "setting": "E. coli 25922", "value": 0.03, "unit": "µg/mL"}, {"measurement": "MIC", "setting": "S. pneumoniae 49619; [7]", "value": 0.25, "unit": "µg/mL"}]}
{"compound": "Cc1c(-c2ccc(CN)c(F)c2)ccn2c(=O)c(C(=O)O)cc(C3CC3)c12", "note": "[Compound 4, 8-(3-fluoro-4-aminomethyl-phenyl)-1-cyclopropyl-9-methyl-4-oxo-quinolizine-3-carboxylic acid]", "values": [{"measurement": "MIC", "setting": "P. aeruginosa 27853", "value": 0.5, "unit": "µg/mL"}, {"measurement": "MIC", "setting": "S. pneumoniae 49619; [7]", "value": 0.125, "unit": "µg/mL"}]}
{"compound": "C[C@H]1COc2c(N3CCN(C)CC3)c(F)cc3c(=O)c(C(=O)O)cn1c23", "note": "[Levofloxacin, reference compound]", "values": [{"measurement": "MIC", "setting": "S. aureus ATCC 25923", "value": 0.125, "unit": "µg/mL"}]}
{"compound": "Cc1c(-c2ccc(CN)cc2)ccn2c(=O)c(C(=O)O)cc(C3CC3)c12", "note": "[Compound 5, 8-(4-aminomethyl-phenyl)-1-cyclopropyl-9-methyl-4-oxo-quinolizine-3-carboxylic acid]", "values": [{"measurement": "MIC", "setting": "P. aeruginosa 27853", "value": 0.5, "unit": "µg/mL"}, {"measurement": "MIC", "setting": "S. pneumoniae 49619; [8]", "value": 0.125, "unit": "µg/mL"}]}
{"compound": "Cc1c(-c2cc(F)c(N)cc2F)ccn2c(=O)c(C(=O)O)cc(C3CC3)c12", "note": "[Compound 2, 8-(4-amino-2,5-difluorophenyl)-1-cyclopropyl-9-methyl-4-oxo-4H-quinolizine-3-carboxylic acid]", "values": [{"measurement": "MIC", "setting": "S. pneumoniae 1027", "value": 0.5, "unit": "µg/mL"}]}
{"compound": "Polymyxin B [reference compound]", "values": [{"measurement": "Pre-chequerboard MIC GN10 Pseudomonas aeruginosa", "setting": "[1]", "value": 1, "unit": "µg/mL"}, {"measurement": "Pre-chequerboard MIC GN31 Acinetobacter baumannii", "setting": "[2]", "value": 0.5, "unit": "µg/mL"}, {"measurement": "Pre-chequerboard MIC GN48 Klebsiella pneumoniae", "setting": "[3]", "value": 1, "unit": "µg/mL"}, {"measurement": "Pre-chequerboard MIC GN52 Acinetobacter baumannii", "setting": "[4]", "value": 0.5, "unit": "µg/mL"}, {"measurement": "Pre-chequerboard MIC GN56 Acinetobacter baumannii", "setting": "[5]", "value": 0.5, "unit": "µg/mL"}]}
{"compound": "Cc1c(-c2ccc(N)cc2)ccn2c(=O)c(C(=O)O)cc(C3CC3)c12", "note": "[Compound 8, 8-(4-amino-phenyl)-1-cyclopropyl-9-methyl-4-oxo-quinolizine-3-carboxylic acid]", "values": [{"measurement": "MIC", "setting": "E. coli 25922", "value": 0.03, "unit": "µg/mL"}]}
{"compound": "Imipenem/cilastatin", "values": [{"measurement": "MIC A. baumannii ATCC 19606", "setting": "A. baumannii ATCC 19606", "value": 2, "unit": "µg/mL"}, {"measurement": "MIC A. baumannii J2", "setting": "A. baumannii J2", "value": 4, "unit": "µg/mL"}, {"measurement": "MIC Acinetobacter spp. H064200250", "setting": "[6]", "value": 16, "unit": "µg/mL"}, {"measurement": "MIC A. baumannii A329", "setting": "A. baumannii A329", "value": 128, "unit": "µg/mL"}, {"measurement": "MIC A. baumannii A489", "setting": "A. baumannii A489", "value": 128, "unit": "µg/mL"}, {"measurement": "MIC A. baumannii A387", "setting": "A. baumannii A387", "value": 16, "unit": "µg/mL"}, {"measurement": "MIC A. baumannii A390", "setting": "A. baumannii A390", "value": 16, "unit": "µg/mL"}, {"measurement": "MIC A baumannii A401", "setting": "A. baumannii A401", "value": 32, "unit": "µg/mL"}, {"measurement": "MIC A. baumannii A472", "setting": "A. baumannii A472", "value": 16, "unit": "µg/mL"}, {"measurement": "MIC A. baumannii A473", "setting": "A. baumannii A473", "value": 32, "unit": "µg/mL"}]}
{"compound": "Cc1c(-c2ccc(CN)cc2)c(F)cn2c(=O)c(C(=O)O)cc(C3CC3)c12", "note": "[Compound 6, 8-(4-aminomethyl-phenyl)-1-cyclopropyl-7-fluoro-9-methyl-4-oxo-quinolizine-3-carboxylic acid]", "values": [{"measurement": "MIC", "setting": "S. pneumoniae 49619; [8]", "value": 0.125, "unit": "µg/mL"}, {"measurement": "MIC", "setting": "E. coli IMP", "value": 0.03, "unit": "µg/mL"}]}
